Assays:
[1] = biological target: human mGluR5a receptor (Homo sapiens, UniProt P41594); experiment: Cell-based functional assay (Ca2+ mobilization, FDSS), potentiation of glutamate EC20 response; conditions: H10H cell line; for Emax: maximum % effect in the concentration-response curve as percent of maximal glutamate response, glutamate EC20; for EC50: potentiation in presence of glutamate EC20, concentration in mol/L
Description: Human mGluR5a cDNA in pCMV6-XL6 mammalian expression plasmid was purchased from OriGene Technologies, Inc. (catalogue number SC326357) and subcloned into pcDNA3.1(−). Human embryonic kidney (HEK)293A cells were then transfected with human mGluR5a pcDNA3.1(−) using LipofectAmine-2000 (Invitrogen) and monoclones were selected and tested for functional response using a Ca^2+ mobilization assay. Monoclones were named for the species (“H” for human) plus the location on the plate (e.g. “10H”).
HEK cells transfected with the human mGluR5a receptor (H10H or H12H cell line) were plated at 15,000 cells/well in clear-bottomed poly-D-lysinecoated assay plates (BD Falcon) in glutamate-glutamine-free growth medium and incubated overnight at 37° C. and 5% CO2. Cell-lines used were either the H10H or H12H cell-lines expressing the human mGluR5 receptor. The following day, the growth medium was removed and the cells were washed with assay buffer containing 1× Hank's balanced salt solution (Invitrogen, Carlsbad, Calif.), 20 mM HEPES, 2.5 mM probenecid, pH 7.4 and left with 20 μL of this reagent. Following this step, the cells were loaded with calcium indicator dye, fluo-4 AM, to a final concentration of 2 μM and incubated for 40-45 min at 37° C. The dye solution was removed and replaced with assay buffer. Cell plates were held for 10-15 min at room temperature and were then loaded into the Functional Drug Screening System 6000 (FDSS 6000, Hamamatsu, Japan).
After establishment of a fluorescence baseline for about 3 seconds, the compounds of the present invention were added to the cells, and the response in cells was measured. 2.3 minutes later an EC20 concentration of the mGluR5 receptor agonist glutamate was added to the cells, and the response of the cells was measured for about 1.7 minutes. All test compounds were dissolved and diluted to a concentration of 10 mM in 100% DMSO and then serially diluted into assay buffer for a 2× stock solution in 0.6% DMSO; stock compounds were then added to the assay for a final DMSO concentration of 0.3% after the first addition to the assay well. Calcium fluorescence measures were recorded as fold over basal fluorescence; raw data was then normalized to the maximal response to glutamate. Potentiation of the agonist response of the mGluR5 receptor in the present invention was observed as an increase in response to submaximal concentrations of glutamate in the presence of compound compared to the response to glutamate in the absence of compound.
The concentration-response curves of compounds of the present invention, obtained in the presence of EC20 of mGluR5 receptor agonist glutamate to determine positive allosteric modulation, were generated using Microsoft Excel with IDBS XLFit add-ins. The raw data file containing all time points was used as the data source in the analysis template. This was saved by the FDSS as a tab-delimited text file. Data were normalized using a static ratio function (F/F0) for each measurement of the total 350 values per well divided by each well's initial value. Data was then reduced as to peak amplitudes (Max Initial Min) using a time range that starts approximately 1 second after the glutamate EC20 addition and continues for approximately 40 seconds. This is sufficient time to capture the peak amplitude of the cellular Calcium response. Individual amplitudes were expressed as % EMax by multiplying each amplitude by 100 and then dividing the product by the mean of the amplitudes derived from the glutamate ECMax-treated wells. pEC50 values for test compounds were generated by fitting the normalized values versus the log of the test compound concentration (in mol/L) using a 4 parameter logistic equation where none of the parameters were fixed. Each of the three values collected at each concentration of test compound were weighted evenly. Individual values falling outside the 95% prediction limits of the curve fit were automatically excluded from the fit. […]

human mGluR5a receptor, sequence (P41594 21-1180 isoform P41594-2 limits assumed): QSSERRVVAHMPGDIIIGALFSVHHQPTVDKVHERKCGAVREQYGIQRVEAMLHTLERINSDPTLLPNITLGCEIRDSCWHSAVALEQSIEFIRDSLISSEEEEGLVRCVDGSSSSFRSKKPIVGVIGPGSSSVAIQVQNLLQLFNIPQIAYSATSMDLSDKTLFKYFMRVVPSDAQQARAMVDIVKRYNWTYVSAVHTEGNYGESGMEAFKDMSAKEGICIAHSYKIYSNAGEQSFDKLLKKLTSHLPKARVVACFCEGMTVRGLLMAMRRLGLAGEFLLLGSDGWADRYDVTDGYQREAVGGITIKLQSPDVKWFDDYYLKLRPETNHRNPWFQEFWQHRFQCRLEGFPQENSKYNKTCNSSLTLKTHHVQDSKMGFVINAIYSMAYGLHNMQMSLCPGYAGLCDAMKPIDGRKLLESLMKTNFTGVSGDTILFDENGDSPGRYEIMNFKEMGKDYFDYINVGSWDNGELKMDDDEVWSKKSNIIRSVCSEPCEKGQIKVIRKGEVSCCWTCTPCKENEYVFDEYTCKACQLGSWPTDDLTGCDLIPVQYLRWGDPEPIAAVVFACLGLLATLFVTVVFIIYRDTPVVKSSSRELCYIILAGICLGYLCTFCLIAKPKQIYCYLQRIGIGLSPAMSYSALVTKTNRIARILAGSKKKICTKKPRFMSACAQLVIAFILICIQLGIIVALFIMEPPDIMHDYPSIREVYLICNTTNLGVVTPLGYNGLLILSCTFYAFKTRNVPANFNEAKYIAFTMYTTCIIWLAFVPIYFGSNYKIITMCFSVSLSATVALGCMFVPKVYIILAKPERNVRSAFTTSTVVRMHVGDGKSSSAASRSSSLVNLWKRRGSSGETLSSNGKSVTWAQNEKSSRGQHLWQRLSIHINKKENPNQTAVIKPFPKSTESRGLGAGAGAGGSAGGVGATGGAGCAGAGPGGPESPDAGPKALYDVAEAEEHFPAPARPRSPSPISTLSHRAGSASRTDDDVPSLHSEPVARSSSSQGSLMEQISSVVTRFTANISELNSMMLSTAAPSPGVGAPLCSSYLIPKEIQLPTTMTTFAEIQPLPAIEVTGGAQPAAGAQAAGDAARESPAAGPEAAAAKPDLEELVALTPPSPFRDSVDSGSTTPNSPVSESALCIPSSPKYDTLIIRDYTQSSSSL

SMILES | Emax [1] [%] | EC50 [1] [nM] | melting point [°C]
O=C1c2cc(OCc3ccccn3)nn2CCN1c1ccc(F)cc1 [Example B34] | 23 | > 30200 | –
O=C1c2cc(OCc3ccccc3F)nn2CCN1c1ccc(F)cc1 [Example B4, 2-[(2-fluorobenzyl)oxy]-5-(4-fluorophenyl)-6,7-dihydropyrazolo[1,5-a]pyrazin-4(5H)-one] | 63 | 141 | 119
COc1cccc(F)c1CN1CCn2nc(OCc3ccccc3)cc2C1=O [Example B70] | 52 | 427 | 162.2
COc1ccc(F)cc1CN1CCn2nc(OCc3ccccc3)cc2C1=O [Example B68] | 58 | 178 | –
O=C1c2cc(OCc3ccccc3)nn2CCN1CC1CCC1 [Example B56] | 52 | 1070 | –
O=C1c2cc(OCc3ccccc3)nn2CCCN1CC1CC1 [Example B53, 2-(benzyloxy)-5-(cyclopropylmethyl)-5,6,7,8-tetrahydro-4H-pyrazolo[1,5-a][1,4]diazepin-4-one] | 23 | 1320 | 68.1 to 68.4
Cc1cccc(COc2cc3n(n2)CCN(c2ccc(F)cc2)C3=O)n1 [Example B36] | 27 | > 30200 | 158.5
COc1cccc(COc2cc3n(n2)CCN(c2ccc(F)cc2)C3=O)c1 [Example B33] | 18 | > 30200 | 105.1
CC1CN(Cc2ccccc2)C(=O)c2cc(OCc3ccccc3)nn21 (single isomer, unassigned) [Example B62] | 61 | 102 | –
O=C1c2cc(OCc3ccc(F)cc3)nn2CCN1c1ccc(F)cc1 [Example B32] | 18 | > 30200 | 155.8
O=C1c2cc(OCc3ccccc3)nn2CCN1CC1CC1(F)F (centres unmarked) [Example B72] | 21 | > 30200 | 107.4
COc1cc(F)cc(CN2CCn3nc(OCc4ccccc4)cc3C2=O)c1 [Example B63] | 62 | 646 | –
O=C1c2cc(OCc3ccccc3)nn2CCN1CC1CC1 [Example B44, 2-(benzyloxy)-5-(cyclopropylmethyl)-6,7-dihydropyrazolo[1,5-a]pyrazin-4(5H)-one] | 26 | ≥ 30200 | –
COc1cccc(CN2CCn3nc(OCc4ccccc4)cc3C2=O)c1Cl [Example B67] | 63 | 115 | –
O=C1c2cc(OCc3ccccc3)nn2CCCN1CC1CC1(F)F (centres unmarked) [Example B73] | 20 | > 30200 | –
O=C1c2cc(OCc3ccccc3)nn2CCN1Cc1ccccc1 [Example B59] | 36 | 87.1 | 103.8
COc1ccc(COc2cc3n(n2)CCN(c2ccc(F)cc2)C3=O)cc1 [Example B30] | 28 | > 30200 | 164.6
O=C1c2cc(OCc3ccncc3)nn2CCN1c1ccc(F)cc1 [Example B31] | 26 | > 30200 | 172.9
COc1cc(CN2CCn3nc(OCc4ccccc4)cc3C2=O)ccc1F [Example B69] | 63 | 692 | 115.1
C[C@@H]1Cn2nc(OCc3ccccc3)cc2C(=O)N1Cc1ccccc1 [Example B61] | 59 | 257 | –
O=C1c2cc(OCc3ccccc3)nn2CCN1CC1CC(F)(F)C1 [Example B71] | 59 | 692 | –
N#Cc1cccc(COc2cc3n(n2)CCN(c2ccc(F)cc2)C3=O)c1 [Example B27] | 31 | 148 | 147.9
CC1(CN2CCn3nc(OCc4ccccc4)cc3C2=O)COC1 [Example B55] | 37 | – | –
O=C1c2cc(OCc3cccnc3)nn2CCN1c1ccc(F)cc1 [Example B35] | 12 | > 30200 | –

Further lines, results first:

Emax [1] [%] | EC50 [1] [nM] | melting point [°C] | SMILES
54 | 182 | – | O=C1c2cc(OCc3ccccc3)nn2CCN1c1ccc(F)cc1 [Example B1, 2-(benzyloxy)-5-(4-fluorophenyl)-6,7-dihydropyrazolo[1,5-a]pyrazin-4(5H)-one]
48 | 269 | 142.2 to 142.3 | Cc1cccc(N2CCCn3nc(OCc4ccccc4)cc3C2=O)n1 [Example B52]
45 | 339 | 145.2 | Cc1cc(N2CCn3nc(OCc4ccccc4)cc3C2=O)ncc1F [Example B18]
57 | 661 | 160.6 | COc1nccc(N2CCn3nc(OCc4ccccc4)cc3C2=O)n1 [Example B2, 2-(benzyloxy)-5-(2-methoxypyrimidin-4-yl)-6,7-dihydropyrazolo[1,5-a]pyrazin-4(5H)-one]
44 | 115 | 131.5 | O=C1c2cc(OCc3ccccc3)nn2CCN1c1cccc(F)c1 [Example B5]
45 | > 10000 | 145.5 | O=C1c2cc(OCc3ccccc3)nn2CCN1c1ccc(F)cn1 [Example B16]
53 | 363 | 114.6 to 116.1 | Cc1nc(N2CCCn3nc(OCc4ccccc4)cc3C2=O)ccc1F [Example B51]
59 | 112 | 146.2 | O=C1c2cc(OCc3ccccc3)nn2CCN1c1cccc(C2CC2)n1 [Example B3, 2-(benzyloxy)-5-(6-cyclopropylpyridin-2-yl)-6,7-dihydropyrazolo[1,5-a]pyrazin-4(5H)-one]
25 | > 10000 | 112.1 to 119.1 | O=C1c2cc(OCc3ccccc3)nn2CCCN1c1ccc(F)cn1 [Example B50, 2-(benzyloxy)-5-(5-fluoropyridin-2-yl)-5,6,7,8-tetrahydro-4H-pyrazolo[1,5-a][1,4]diazepin-4-one]
57 | 380 | – | O=C1c2cc(OCc3ccccc3)nn2CCCN1Cc1ccccc1 [Example B58, 5-benzyl-2-(benzyloxy)-5,6,7,8-tetrahydro-4H-pyrazolo[1,5-a][1,4]diazepin-4-one]
25 | > 10000 | 153.5 | O=C1c2cc(OCc3ccccc3)nn2CCN1c1ccccn1 [Example B11]
17 | > 30200 | 147.8 | O=C1c2cc(OCc3ccccc3)nn2CCN1c1cccnc1 [Example B12]
47 | 871 | 182.8 | Cc1nccc(N2CCn3nc(OCc4ccccc4)cc3C2=O)n1 [Example B19]
43 | 708 | 215.2 | Cc1cncc(N2CCn3nc(OCc4ccccc4)cc3C2=O)n1 [Example B22]
63 | 363 | – | COc1cccc(CN2CCn3nc(OCc4ccccc4)cc3C2=O)c1F [Example B66]
45 | 132 | 145.3 | COc1cc(N2CCn3nc(OCc4ccccc4)cc3C2=O)ccc1F [Example B8]
47 | 102 | 209.8 | Cc1cc(N2CCn3nc(OCc4ccccc4)cc3C2=O)ccc1F [Example B7]
37 | > 10000 | 167.2 | O=C1c2cc(OCc3ccccc3)nn2CCN1c1ccncc1 [Example B13]
42 | 75.9 | 232.7 | COc1c(Cl)cccc1CN1CCn2nc(OCc3ccccc3)cc2C1=O [Example B57, 2-(benzyloxy)-5-(3-chloro-2-methoxybenzyl)-6,7-dihydropyrazolo[1,5-a]pyrazin-4(5H)-one]

— patent US8901125B2, “Substituted bicyclic alkoxy pyrazole analogs as allosteric modulators of mGluR5 receptors” (Vanderbilt University, priority 2012, dated 2014)
